How the values were obtained:
[1] = biological target: T1, Tyrosine-protein kinase JAK2 (Homo sapiens, UniProt O60674); test: Inhibition of recombinant human JAK2 (808 to end residues) using biotinylated TK substrate in presence of [33P]ATP
[2] = Inhibition of JAK/STAT signaling pathway in human CD19 positive B cells assessed as inhibition of IL-4 stimulated STAT6 phosphorylation at Y641 residue preincubated for 1 hr followed by IL-4 stimulation and measured after 15 mins by flow cytometry analysis; assay type: cell-based; details: CD19 positive B cell
[3] = biological target: Macrophage colony-stimulating factor 1 receptor (Homo sapiens, UniProt P07333); test: Inhibition of FMS (unknown origin)
[4] = biological target: Serine/threonine-protein kinase 3 (Homo sapiens, UniProt Q13188); test: Inhibition of MST2 (unknown origin)
[5] = Inhibition of JAK/STAT signaling pathway in human CD14 positive monocytes assessed as inhibition of IL-4 stimulated STAT6 phosphorylation at Y641 residue preincubated for 1 hr followed by IL-4 stimulation and measured after 15 mins by flow cytometry analysis; assay type: cell-based
[6] = biological target: Tyrosine-protein kinase ITK/TSK (Homo sapiens, UniProt Q08881); test: Inhibition of ITK (unknown origin)
[7] = Inhibition of JAK/STAT signaling pathway in human CD8-positive T cells assessed as inhibition of IL-2 stimulated STAT5 phosphorylation at Y694 residue preincubated for 1 hr followed by IL-2 stimulation and measured after 15 mins by flow cytometry analysis; assay type: cell-based; details: CD8-positive T cell
[8] = Inhibition of JAK/STAT signaling pathway in human CD14 positive monocytes assessed as inhibition of GM-CSF stimulated STAT5 phosphorylation at Y694 residue preincubated for 1 hr followed by GM-CSF stimulation and measured after 15 mins by flow cytometry analysis; assay type: cell-based
[9] = biological target: Mitogen-activated protein kinase kinase kinase 9 (Homo sapiens, UniProt P80192); test: Inhibition of MLK1 (unknown origin)
[10] = biological target: Serine/threonine-protein kinase MARK2 (Homo sapiens, UniProt Q7KZI7); test: Inhibition of PAR1B-a (unknown origin)
[11] = biological target: Ribosomal protein S6 kinase alpha-3 (Homo sapiens, UniProt P51812); test: Inhibition of RSK2 (unknown origin)
[12] = biological target: Proto-oncogene tyrosine-protein kinase receptor Ret (Homo sapiens, UniProt P07949); test: Inhibition of RET (unknown origin)
[13] = biological target: Mitogen-activated protein kinase kinase kinase kinase 2 (Homo sapiens, UniProt Q12851); test: Inhibition of GCK (unknown origin)
[14] = Inhibition of JAK/STAT signaling pathway in human CD4+ve Th cells assessed as inhibition of IL-2 stimulated STAT5 phosphorylation at Y694 residue preincubated for 1 hr followed by IL-2 stimulation and measured after 15 mins by flow cytometry analysis; assay type: cell-based
[15] = biological target: Vascular endothelial growth factor receptor 3 (Homo sapiens, UniProt P35916); test: Inhibition of FLT4 (unknown origin)
[16] = biological target: T2, Receptor-type tyrosine-protein kinase FLT3 (Homo sapiens, UniProt P36888)
T2 sequence (P36888 whole entry): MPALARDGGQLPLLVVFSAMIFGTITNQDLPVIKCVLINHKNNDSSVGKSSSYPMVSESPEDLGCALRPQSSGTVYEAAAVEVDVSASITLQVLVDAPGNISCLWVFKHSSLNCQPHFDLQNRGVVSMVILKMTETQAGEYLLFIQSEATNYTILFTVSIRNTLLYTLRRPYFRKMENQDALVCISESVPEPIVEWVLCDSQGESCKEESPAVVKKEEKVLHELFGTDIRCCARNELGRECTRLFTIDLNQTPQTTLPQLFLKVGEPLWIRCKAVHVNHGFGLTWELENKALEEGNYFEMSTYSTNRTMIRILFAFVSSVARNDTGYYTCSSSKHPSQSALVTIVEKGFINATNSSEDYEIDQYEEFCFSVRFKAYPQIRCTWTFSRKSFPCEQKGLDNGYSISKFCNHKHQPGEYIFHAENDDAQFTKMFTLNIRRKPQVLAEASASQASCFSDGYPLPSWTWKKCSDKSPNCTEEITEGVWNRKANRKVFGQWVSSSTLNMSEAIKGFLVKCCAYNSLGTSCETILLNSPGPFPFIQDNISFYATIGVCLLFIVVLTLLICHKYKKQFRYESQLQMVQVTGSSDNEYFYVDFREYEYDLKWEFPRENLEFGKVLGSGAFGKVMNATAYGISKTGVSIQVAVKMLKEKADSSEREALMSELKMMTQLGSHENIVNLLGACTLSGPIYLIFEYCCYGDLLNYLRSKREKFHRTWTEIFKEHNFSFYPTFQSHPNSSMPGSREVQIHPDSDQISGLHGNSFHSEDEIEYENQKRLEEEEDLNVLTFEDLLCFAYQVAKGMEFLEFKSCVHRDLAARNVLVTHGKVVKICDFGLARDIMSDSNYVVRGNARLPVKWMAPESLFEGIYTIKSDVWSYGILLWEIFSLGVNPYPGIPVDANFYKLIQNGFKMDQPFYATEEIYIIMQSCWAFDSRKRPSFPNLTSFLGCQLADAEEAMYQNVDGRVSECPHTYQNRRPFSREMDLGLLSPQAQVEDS

[17] = biological target: Ribosomal protein S6 kinase alpha-6 (Homo sapiens, UniProt Q9UK32); test: Inhibition of RSK4 (unknown origin)
[18] = Inhibition of JAK/STAT signaling pathway in human CD8-positive T cells assessed as inhibition of IL-4 stimulated STAT6 phosphorylation at Y641 residue preincubated for 1 hr followed by IL-4 stimulation and measured after 15 mins by flow cytometry analysis; assay type: cell-based; details: CD8-positive T cell
[19] = Inhibition of JAK/STAT signaling pathway in human CD14 positive monocytes assessed as inhibition of IL-6 stimulated STAT3 phosphorylation at Y705 residue preincubated for 1 hr followed by IL-6 stimulation and measured after 15 mins by flow cytometry analysis; assay type: cell-based
[20] = biological target: Serine/threonine-protein kinase Chk1 (Homo sapiens, UniProt O14757); test: Inhibition of CHK1 (unknown origin)
[21] = Inhibition of JAK/STAT signaling pathway in human CD4+ve Th cells assessed as inhibition of IL-4 stimulated STAT6 phosphorylation at Y641 residue preincubated for 1 hr followed by IL-4 stimulation and measured after 15 mins by flow cytometry analysis; assay type: cell-based
[22] = Cytotoxicity against human CLL cells assessed inhibition of cell growth incubated for 72 hrs by propidium iodide staining based flow cytometry analysis; assay type: functional
[23] = biological target: Serine/threonine-protein kinase MARK1 (Homo sapiens, UniProt Q9P0L2); test: Inhibition of MARK1 (unknown origin)
[24] = biological target: Non-receptor tyrosine-protein kinase TYK2 (Homo sapiens, UniProt P29597); test: Inhibition of TYK2 (unknown origin) by flow cytometry analysis
[25] = biological target: Tyrosine-protein kinase JAK1 (Homo sapiens, UniProt P23458); test: Inhibition of JAK1 (unknown origin) by flow cytometry analysis
[26] = biological target: Tyrosine-protein kinase JAK3 (Homo sapiens, UniProt P52333); test: Inhibition of JAK3 (unknown origin) by flow cytometry analysis
[27] = biological target: T1, Tyrosine-protein kinase JAK2; test: Inhibition of JAK2 (unknown origin) by flow cytometry analysis
[28] = biological target: Tyrosine-protein kinase SYK (Homo sapiens, UniProt P43405); test: Inhibition of SYK (unknown origin) by flow cytometry analysis
MOLM-13 = test: Antitumor activity against human MOLM-13 cells xenografted mouse model assessed as tumor growth inhibition at 150 mg/kg administered for 7 days relative to control; assay type: functional; details: MOLM-13, 168 h, time 7 day, read-out: TGI
BaF3 [29] = test: Antitumor activity against mouse BaF3 cells harboring JAK2 V617F mutant implanted in BALB/c mouse model assessed as normalization rate of liver weight at 150 mg/kg, po qd administered from day 4 post infection and measured after 14 days relative to control; assay type: functional; details: time 10 day
BaF3 [30] = test: Antitumor activity against mouse BaF3 cells harboring JAK2 V617F mutant implanted in BALB/c mouse model assessed as normalization rate of spleen weight at 150 mg/kg, po qd administered from day 4 post infection and measured after 14 days relative to control; assay type: functional; details: time 10 day
[31] = biological target: Tyrosine-protein kinase Tec (Homo sapiens, UniProt P42680); test: Inhibition of TEC (unknown origin) in presence of ATP
MV4-11 = test: Antitumor activity against human MV4-11 cells harboring FLT3 […] mutant xenografted acute myeloid leukemia BALB/c mouse model assessed as tumor growth inhibition at 40 mg/kg, po qd administered daily for 21 days relative to control; assay type: functional; details: MV4-11, 504 h, time 21 day, read-out: TGI

T1 sequence (O60674 whole entry): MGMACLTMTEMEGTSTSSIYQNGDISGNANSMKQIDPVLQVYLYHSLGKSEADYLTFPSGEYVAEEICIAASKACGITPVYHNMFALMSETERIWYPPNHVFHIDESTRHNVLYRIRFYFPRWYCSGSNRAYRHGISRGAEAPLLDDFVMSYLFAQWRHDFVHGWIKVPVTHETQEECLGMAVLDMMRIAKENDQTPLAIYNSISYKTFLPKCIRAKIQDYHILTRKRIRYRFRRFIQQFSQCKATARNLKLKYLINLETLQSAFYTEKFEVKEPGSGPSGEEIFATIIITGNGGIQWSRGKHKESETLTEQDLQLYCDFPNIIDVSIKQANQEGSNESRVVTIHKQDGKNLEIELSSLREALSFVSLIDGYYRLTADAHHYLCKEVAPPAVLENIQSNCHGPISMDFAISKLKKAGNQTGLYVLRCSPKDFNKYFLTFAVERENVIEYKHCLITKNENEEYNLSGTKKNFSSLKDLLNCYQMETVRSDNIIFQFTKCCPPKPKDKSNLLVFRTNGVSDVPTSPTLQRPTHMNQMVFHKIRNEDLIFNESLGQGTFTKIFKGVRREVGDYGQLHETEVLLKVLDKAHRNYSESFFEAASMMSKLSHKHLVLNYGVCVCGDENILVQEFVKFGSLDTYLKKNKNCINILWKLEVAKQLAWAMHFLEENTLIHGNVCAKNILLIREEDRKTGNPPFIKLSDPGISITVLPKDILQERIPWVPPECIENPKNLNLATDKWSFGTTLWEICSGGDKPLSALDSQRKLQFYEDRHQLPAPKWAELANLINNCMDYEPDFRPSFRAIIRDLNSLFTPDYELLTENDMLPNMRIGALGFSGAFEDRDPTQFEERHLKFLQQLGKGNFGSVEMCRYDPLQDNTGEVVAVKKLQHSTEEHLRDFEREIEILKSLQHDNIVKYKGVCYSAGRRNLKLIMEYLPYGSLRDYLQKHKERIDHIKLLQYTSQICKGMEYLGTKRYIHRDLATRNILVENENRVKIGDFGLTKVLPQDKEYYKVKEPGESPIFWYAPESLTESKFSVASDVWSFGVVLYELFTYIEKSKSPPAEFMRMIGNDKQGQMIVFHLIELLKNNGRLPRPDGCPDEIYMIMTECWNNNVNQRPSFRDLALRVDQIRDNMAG
Chain of Serine/threonine-protein kinase MARK1 (Q9P0L2 whole entry): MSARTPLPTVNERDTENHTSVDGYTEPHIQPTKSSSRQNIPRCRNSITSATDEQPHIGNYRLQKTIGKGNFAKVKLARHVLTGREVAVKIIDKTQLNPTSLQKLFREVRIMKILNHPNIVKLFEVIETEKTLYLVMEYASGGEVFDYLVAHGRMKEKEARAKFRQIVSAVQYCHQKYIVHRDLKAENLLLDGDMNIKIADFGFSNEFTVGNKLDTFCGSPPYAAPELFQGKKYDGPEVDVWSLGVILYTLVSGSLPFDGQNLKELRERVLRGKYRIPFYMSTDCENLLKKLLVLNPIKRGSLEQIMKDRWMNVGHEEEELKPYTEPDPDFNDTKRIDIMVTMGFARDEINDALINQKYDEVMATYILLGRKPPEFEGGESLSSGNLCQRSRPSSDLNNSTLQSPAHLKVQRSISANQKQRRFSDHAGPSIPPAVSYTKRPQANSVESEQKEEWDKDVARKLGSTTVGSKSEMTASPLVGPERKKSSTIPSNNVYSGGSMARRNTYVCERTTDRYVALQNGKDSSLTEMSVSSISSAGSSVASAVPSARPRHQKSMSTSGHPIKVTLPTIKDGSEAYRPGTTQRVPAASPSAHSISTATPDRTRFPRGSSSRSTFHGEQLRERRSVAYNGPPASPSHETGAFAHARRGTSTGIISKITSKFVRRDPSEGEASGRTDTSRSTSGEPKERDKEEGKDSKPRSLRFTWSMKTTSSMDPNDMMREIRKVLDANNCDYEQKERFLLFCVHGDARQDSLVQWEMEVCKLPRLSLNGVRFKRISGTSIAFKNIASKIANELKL
Chain of Vascular endothelial growth factor receptor 3 (P35916 whole entry): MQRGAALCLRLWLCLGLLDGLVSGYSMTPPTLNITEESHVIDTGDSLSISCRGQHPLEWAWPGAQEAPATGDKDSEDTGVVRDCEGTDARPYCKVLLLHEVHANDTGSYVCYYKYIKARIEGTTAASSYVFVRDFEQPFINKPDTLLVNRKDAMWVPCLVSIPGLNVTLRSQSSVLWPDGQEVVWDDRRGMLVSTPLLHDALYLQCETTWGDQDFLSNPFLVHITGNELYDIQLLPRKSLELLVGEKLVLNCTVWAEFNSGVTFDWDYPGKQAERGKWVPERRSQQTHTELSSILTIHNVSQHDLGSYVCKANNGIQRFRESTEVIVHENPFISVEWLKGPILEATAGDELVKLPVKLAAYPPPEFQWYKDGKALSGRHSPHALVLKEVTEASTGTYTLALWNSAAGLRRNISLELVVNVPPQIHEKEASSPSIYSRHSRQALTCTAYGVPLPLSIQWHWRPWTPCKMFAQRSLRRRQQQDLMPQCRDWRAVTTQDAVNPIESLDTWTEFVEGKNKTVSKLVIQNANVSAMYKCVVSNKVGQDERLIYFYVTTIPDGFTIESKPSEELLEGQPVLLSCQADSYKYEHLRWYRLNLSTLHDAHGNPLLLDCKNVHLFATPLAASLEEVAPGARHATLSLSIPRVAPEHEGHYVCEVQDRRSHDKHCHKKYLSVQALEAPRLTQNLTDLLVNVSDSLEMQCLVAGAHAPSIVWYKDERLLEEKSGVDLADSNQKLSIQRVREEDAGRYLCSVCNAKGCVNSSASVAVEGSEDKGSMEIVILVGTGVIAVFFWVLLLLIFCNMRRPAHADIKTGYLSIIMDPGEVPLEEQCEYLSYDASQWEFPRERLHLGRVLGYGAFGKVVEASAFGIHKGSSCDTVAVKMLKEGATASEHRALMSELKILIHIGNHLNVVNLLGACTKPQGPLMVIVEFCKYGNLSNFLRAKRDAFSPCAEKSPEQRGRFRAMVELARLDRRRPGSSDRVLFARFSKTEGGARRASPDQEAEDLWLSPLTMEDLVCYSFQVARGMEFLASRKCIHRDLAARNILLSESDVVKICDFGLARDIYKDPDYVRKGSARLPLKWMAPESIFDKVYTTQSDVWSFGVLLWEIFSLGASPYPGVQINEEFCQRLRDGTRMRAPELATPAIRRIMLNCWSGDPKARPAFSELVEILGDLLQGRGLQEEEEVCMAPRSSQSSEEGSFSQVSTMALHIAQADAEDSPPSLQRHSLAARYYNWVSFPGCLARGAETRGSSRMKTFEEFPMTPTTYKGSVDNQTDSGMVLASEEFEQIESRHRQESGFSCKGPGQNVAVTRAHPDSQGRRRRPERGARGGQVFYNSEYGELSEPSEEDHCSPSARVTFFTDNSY
Chain of Proto-oncogene tyrosine-protein kinase receptor Ret (P07949 whole entry): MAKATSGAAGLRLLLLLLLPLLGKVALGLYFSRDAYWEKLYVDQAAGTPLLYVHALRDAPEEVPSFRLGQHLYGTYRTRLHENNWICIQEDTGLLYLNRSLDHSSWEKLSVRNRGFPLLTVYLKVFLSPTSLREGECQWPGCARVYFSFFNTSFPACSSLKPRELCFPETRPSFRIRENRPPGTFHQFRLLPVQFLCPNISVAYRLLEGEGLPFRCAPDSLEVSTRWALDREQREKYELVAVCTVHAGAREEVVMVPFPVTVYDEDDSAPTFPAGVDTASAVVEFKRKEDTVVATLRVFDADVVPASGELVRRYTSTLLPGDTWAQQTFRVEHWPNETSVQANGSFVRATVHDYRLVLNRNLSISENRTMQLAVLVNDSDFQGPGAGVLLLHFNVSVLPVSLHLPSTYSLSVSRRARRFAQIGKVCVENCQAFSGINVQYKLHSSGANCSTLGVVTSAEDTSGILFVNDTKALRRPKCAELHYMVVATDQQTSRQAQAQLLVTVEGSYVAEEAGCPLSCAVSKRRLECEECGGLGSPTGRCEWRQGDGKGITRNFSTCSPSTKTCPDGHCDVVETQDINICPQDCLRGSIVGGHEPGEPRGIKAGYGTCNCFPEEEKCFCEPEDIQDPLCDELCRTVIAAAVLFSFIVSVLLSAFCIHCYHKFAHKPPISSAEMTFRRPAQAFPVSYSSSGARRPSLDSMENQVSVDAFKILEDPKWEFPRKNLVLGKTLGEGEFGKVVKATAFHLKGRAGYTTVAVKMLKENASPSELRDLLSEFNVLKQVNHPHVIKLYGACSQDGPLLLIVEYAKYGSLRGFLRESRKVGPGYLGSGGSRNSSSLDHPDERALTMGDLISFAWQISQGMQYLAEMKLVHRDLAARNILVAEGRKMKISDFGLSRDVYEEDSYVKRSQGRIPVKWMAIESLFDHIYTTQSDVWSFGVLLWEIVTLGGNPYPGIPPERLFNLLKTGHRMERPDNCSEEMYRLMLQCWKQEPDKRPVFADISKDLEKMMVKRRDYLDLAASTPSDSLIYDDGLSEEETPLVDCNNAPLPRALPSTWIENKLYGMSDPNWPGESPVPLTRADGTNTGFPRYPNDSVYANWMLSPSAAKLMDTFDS
Chain of Serine/threonine-protein kinase Chk1 (O14757 whole entry): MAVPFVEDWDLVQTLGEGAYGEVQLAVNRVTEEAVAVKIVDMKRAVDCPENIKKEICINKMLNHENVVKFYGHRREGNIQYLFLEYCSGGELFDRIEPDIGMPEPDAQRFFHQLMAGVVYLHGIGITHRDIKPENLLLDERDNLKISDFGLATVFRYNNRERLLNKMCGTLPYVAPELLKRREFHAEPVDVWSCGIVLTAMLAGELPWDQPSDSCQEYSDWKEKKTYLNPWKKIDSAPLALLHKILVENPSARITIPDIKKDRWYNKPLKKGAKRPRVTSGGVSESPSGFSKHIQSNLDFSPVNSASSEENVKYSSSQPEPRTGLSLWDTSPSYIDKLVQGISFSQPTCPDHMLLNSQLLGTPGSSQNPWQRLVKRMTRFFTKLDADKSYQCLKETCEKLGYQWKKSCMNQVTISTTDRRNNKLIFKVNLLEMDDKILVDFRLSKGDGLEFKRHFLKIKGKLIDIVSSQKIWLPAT

Molecule C[C@H]1CC(C(=O)CC#N)[C@]12CCN(c1ncnc3[nH]ccc13)C2 (stereo partly drawn) has an IC50 [1] of 2.6 nM.
For CCS(=O)(=O)N1CCN(c2ccc(Nc3ncc(C(N)=O)c(NC4CC4)n3)cc2)CC1 [CERDULATINIB], the IC50 [2] was under 1000 nM, the IC50 [3] was 4 nM and the IC50 [4] was 4 nM. It also gave an IC50 [5] of under 1000 nM, an IC50 [6] of 4 nM and an IC50 [7] of under 1000 nM. It also gave an IC50 [8] of over 4000 nM, an IC50 [9] of 4 nM and an IC50 [10] of 4 nM. It also gave an IC50 [11] of 4 nM, an IC50 [12] of 4 nM and an IC50 [13] of 4 nM. It also gave an IC50 [14] of under 1000 nM, an IC50 [15] of 4 nM and an IC50 [16] of 4 nM. The IC50 [17] was 4 nM, the IC50 [18] was under 1000 nM and the IC50 [19] was under 1000 nM. The IC50 [20] was 4 nM, the IC50 [21] was under 1000 nM and the IC50 [22] was 370 nM. For the same molecule, the IC50 [23] was 4 nM.
N#CCC1CCN(c2nc(Nc3ccc(N4CCC(O)CC4)cc3)c3c(=O)[nH]ncc3n2)CC1 [GUSACITINIB] gave an IC50 [24] of 8 nM, an IC50 [25] of 46 nM and an IC50 [26] of 11 nM. For the same molecule, the IC50 [27] was 4 nM and the IC50 [28] was 5 nM.
With C1=N/C2=N/c3ccc(OCCN4CCCC4)c(c3)COC/C=C/COCc3cccc(c3)C(=C1)N2 [PACRITINIB] the inhibition in vivo at 150 mg/kg (MOLM-13) was 83%, the Activity (BaF3 [29]) was 99% and the Activity (BaF3 [30]) was 42%.
C=CC(=O)N1C[C@H](Nc2ncnc3[nH]ccc23)CC[C@@H]1C [RITLECITINIB] gave an IC50 [31] of 155 nM.
CN1C/C=C/CCOc2cccc(c2)-c2ccnc(n2)Nc2cccc(c2)C1 [ZOTIRACICLIB] gave an inhibition in vivo at 40 mg/kg (MV4-11) of 113%.
